Patent US20090105235A1, “INSECTICIDAL COMPOSITIONS WITH IMPROVED EFFECT” (Bayer CropScience AG, priority 2005, published 2009)
Read-outs that look alike come from different tables or passages of the source.

Key:
Assay type in all cases: in vivo
[1] = system: Aphis gossypii; experiment: Aphis gossypii test (Example A), cotton, spraying upper side of leaf; details: active compound 24 g/ha, spray volume 600 l/ha
Description: To produce a suitable preparation of active compound, 1 part by weight of active compound is mixed with the stated amounts of solvent and emulsifier, and the concentrate is diluted with water to the desired concentration. If addition of ammonium salts, phosphonium salts or penetrants is required, the appropriate amount is added by pipette after dilution of the respective finished preparation solution.
Single-leaf cotton plants (Gossypium hirsutum) which are heavily infested by the cotton aphid (Aphis gossypii) are treated by spraying of the upper side of the leaf (spray volume 600 l/ha) with the active compound preparation at the desired concentration.
(§1) After the desired period of time, the kill in % is determined. 100% means that all animals have been killed; 0% means that none of the animals have been killed.

[2] = system: Myzus persicae; experiment: Myzus persicae test (Example D), bell pepper plants sprayed; details: for pest or weed control at 0.16 ppm / pest or weed control at 0.8 ppm / pest or weed control at 4 ppm: Myzus persicae, 144 h, read-out: Kill rate after 6 days, Without penetrant and AS; for Kill rate after 6 days, With penetrant and AS: with penetrant and AS (in each case 1000 ppm)
Description: (§2) To produce a suitable preparation of active compound, 1 part by weight of active compound is mixed with the stated amounts of solvent and emulsifier, and the concentrate is diluted with emulsifier-containing water to the desired concentration. If addition of ammonium salts or ammonium salts and penetrant is required, the appropriate amount is added by pipette after dilution of the respective finished preparation solution (in each case 1000 ppm).
Bell pepper plants (Capsicum annuum) which are heavily infested by the green peach aphid (Myzus persicaei) are treated by spraying with the active compound preparation at the desired concentration.
as §1

[3] = system: Aphis gossypii; experiment: Aphis gossypii test (Example E), cotton leaves sprayed; details: for Kill rate after 6 days, With penetrant and AS: with penetrant and AS (in each case 1000 ppm)
Description: as §2
Cotton leaves (Gossypium hirsutum) which are heavily infested by the cotton aphid (Aphis gossypii) are sprayed with an active compound preparation at the desired concentration.
After the desired period of time, the kill in % is determined. 100% means that all aphids have been killed; 0% means that none of the aphids have been killed.

[4] = system: Myzus persicae; experiment: Myzus persicae test (Example F), bell pepper, spraying underside of leaf; details: active compound 0.48 g/ha
Description: as §2, with “with” for “with emulsifier-containing”
Single-leaf bell pepper plants (Capsicum annuum) which are heavily infested by the green peach aphid (Myzus persicaei) are treated by spraying of the underside of the leaf with the active compound preparation at the desired concentration.
as §1

[5] = system: Myzus persicae; experiment: Myzus persicae test (Example G), bell pepper, spraying upper side of leaf; details: active compound 2.4 g/ha
Description: as §2, with “with” for “with emulsifier-containing”
Single-leaf bell pepper plants (Capsicum annuum) which are heavily infested by the green peach aphid (Myzus persicaei) are treated by spraying of the upper side of the leaf with the active compound preparation at the desired concentration.
as §1

[6] = system: Aphis gossypii; experiment: Aphis gossypii test (APHIGO contact) (Example H), cotton, spraying underside of leaf; details: active compound 0.192 g/ha
Description: as §2, with “with” for “with emulsifier-containing”
Single-leaf cotton plants (Gossypium hirsutum) which are heavily infested by the cotton aphid (Aphis gossypii) are treated by spraying of the underside of the leaf with the active compound preparation at the desired concentration.
as §1

[7] = system: Aphis gossypii; experiment: Aphis gossypii test (APHIGO translaminar) (Example I), cotton, spraying upper side of leaf; details: active compound 0.192 g/ha
Description: as §2, with “with” for “with emulsifier-containing”
Single-leaf cotton plants (Gossypium hirsutum) which are heavily infested by the cotton aphid (Aphis gossypii) are treated by spraying of the upper side of the leaf with the active compound preparation at the desired concentration.
as §1

[8] = active compound 0.16 ppm, 6 days
[9] = Aphis gossypii, 144 h, read-out: Kill rate after 6 days, Without penetrant and AS
[10] = active compound 0.8 ppm, 6 days
[11] = with penetrant and AS (in each case 1000 ppm)
[12] = active compound 0.16 ppm, without penetrant and AS, 6 days
[13] = Aphis gossypii, 144 h, active compound 0.16 ppm, without penetrant and AS, 6 days, read-out: Kill rate after 6 days, Without penetrant and AS
[14] = active compound 0.8 ppm, without penetrant and AS, 6 days
[15] = Aphis gossypii, 144 h, active compound 0.8 ppm, without penetrant and AS, 6 days, read-out: Kill rate after 6 days, Without penetrant and AS

SMILES: CON/C(=N\[N+](=O)[O-])NCc1cnc(Cl)s1 [(Ib-3)]
- Kill rate after 3 days, With AS 1 g/l ([1]; with ammonium sulphate 1 g/l): 99%
- Kill rate after 3 days, Without AS ([1]; without ammonium sulphate): 77%

SMILES: CN1COCN(Cc2cnc(Cl)s2)/C1=N/[N+](=O)[O-] [Ia-1, thiamethoxam, reference compound]
- pest or weed control at 0.16 ppm [2]: 10%
- Kill rate after 6 days, With penetrant and AS [2, 8]: 85%
- pest or weed control at 0.16 ppm [3, 9]: 0%
- Kill rate after 6 days, With penetrant and AS [3, 8]: 40%

SMILES: CN/C(=N\[N+](=O)[O-])NCc1cnc(Cl)s1 [Ia-2, clothianidin, reference compound]
- pest or weed control at 0.8 ppm [2]: 60%
- Kill rate after 6 days, With penetrant and AS [2, 10]: 100%

SMILES: N#C/N=C1\SCCN1Cc1ccc(Cl)nc1 [Ia-3, thiacloprid, reference compound]
- pest or weed control at 0.16 ppm [2]: 0%
- Kill rate after 6 days, With penetrant and AS [2, 8]: 50%
- pest or weed control at 0.16 ppm [3, 9]: 0%
- Kill rate after 6 days, With penetrant and AS [3, 8]: 70%

SMILES: CN/C(=N\[N+](=O)[O-])NCC1CCOC1 (stereo not drawn) [Ia-4, dinotefuran, reference compound]
- pest or weed control at 4 ppm [2]: 10%
- Kill rate after 6 days, With penetrant and AS ([2]; active compound 4 ppm, 6 days): 80%
- pest or weed control at 0.8 ppm [3, 9]: 0%
- Kill rate after 6 days, With penetrant and AS [3, 10]: 35%

SMILES: C/C(=N\C#N)N(C)Cc1ccc(Cl)nc1 [Ia-5, acetamiprid, reference compound]
- pest or weed control at 0.16 ppm [2]: 0%
- Kill rate after 6 days, With penetrant and AS [2, 8]: 90%

SMILES: CCN(Cc1ccc(Cl)nc1)/C(=C/[N+](=O)[O-])NC [Ia-6, nitenpyram, reference compound]
- pest or weed control at 0.8 ppm [2]: 10%
- Kill rate after 6 days, With penetrant and AS [2, 10]: 90%
- pest or weed control at 0.8 ppm [3, 9]: 25%
- Kill rate after 6 days, With penetrant and AS [3, 10]: 99%

SMILES: O=[N+]([O-])/N=C1\NCCN1Cc1ccc(Cl)nc1 [Ia-7, imidacloprid, reference compound]
- pest or weed control at 4 ppm [2]: 40%
- Kill rate after 6 days, With penetrant and AS ([2]; active compound 4 ppm, 6 days): 100%
- pest or weed control at 4 ppm [3, 9]: 15%
- Kill rate after 6 days, With penetrant and AS ([3]; active compound 4 ppm, 6 days): 95%

SMILES: O=[N+]([O-])/N=C1\NCCN1Cc1cnc(Cl)s1 [Ia-8, imidaclothiz, reference compound]
- pest or weed control at 0.8 ppm [3, 9]: 65%
- Kill rate after 6 days, With penetrant and AS [3, 10]: 95%

SMILES: CN1CN(C)/C(=N\[N+](=O)[O-])N(Cc2cnc(Cl)s2)C1 [Ia-9, AKD-1022]
- pest or weed control at 0.8 ppm [2]: 70%
- Kill rate after 6 days, With penetrant and AS [2, 10]: 100%
- pest or weed control at 0.8 ppm [3, 9]: 80%
- Kill rate after 6 days, With penetrant and AS [3, 10]: 100%

SMILES: C/N=C(\C(=C/N(C)C)[N+](=O)[O-])N(C)Cc1ccc(Cl)nc1 [Ic-1]
- pest or weed control at 0.8 ppm [2]: 0%
- Kill rate after 6 days, With penetrant and AS [2, 10]: 95%
- Kill rate after 7 days, With penetrant and AS [4, 11]: 67%
- Kill rate after 7 days, Without penetrant and AS ([4]; without penetrant and AS): 0%
- Kill rate after 7 days, With penetrant and AS [5, 11]: 53%
- Kill rate after 7 days, Without penetrant and AS ([5]; without penetrant and AS): 0%
- Kill rate after 7 days, With penetrant and AS [6, 11]: 70%
- Kill rate after 7 days, Without penetrant and AS ([6]; without penetrant and AS): 0%
- pest or weed control at 0.8 ppm [3, 9]: 5%
- Kill rate after 6 days, With penetrant and AS [3, 10]: 60%

SMILES: CN/C(=C\[N+](=O)[O-])C(C)c1ccc(Cl)nc1 (stereo not drawn) [Id-1]
- pest or weed control at 0.8 ppm [2]: 0%
- Kill rate after 6 days, With penetrant and AS [2, 10]: 90%
- pest or weed control at 0.8 ppm [3, 9]: 0%
- Kill rate after 6 days, With penetrant and AS [3, 10]: 55%

SMILES: O=C/C(=C1/NCCN1Cc1ccc(Cl)nc1)[N+](=O)[O-] [Ie-2]
- pest or weed control at 0.16 ppm [2]: 10%
- Kill rate after 6 days, With penetrant and AS [2, 8]: 95%
- pest or weed control at 0.16 ppm [3, 9]: 10%
- Kill rate after 6 days, With penetrant and AS [3, 8]: 95%

SMILES: CN(Cc1ccc(Cl)nc1)C1=CC(=O)OC1 [If-1]
- pest or weed control at 0.16 ppm [2, 12]: 20%
- Kill rate after 6 days, With penetrant and AS [2, 8]: 85%
- Kill rate after 7 days, With penetrant and AS [7, 11]: 70%
- Kill rate after 7 days, Without penetrant and AS ([7]; without penetrant and AS): 0%
- pest or weed control at 0.16 ppm [3, 13]: 30%
- Kill rate after 6 days, With penetrant and AS [3, 8]: 75%

SMILES: O=C1C=C(NCc2ccc(Cl)nc2)CO1 [If-2]
- pest or weed control at 0.16 ppm [2, 12]: 0%
- Kill rate after 6 days, With penetrant and AS [2, 8]: 50%
- pest or weed control at 0.16 ppm [3, 13]: 0%
- Kill rate after 6 days, With penetrant and AS [3, 8]: 50%

SMILES: C=CCN(CCN/C(=C/[N+](=O)[O-])SC)Cc1ccc(Cl)nc1 [Ih-1]
- pest or weed control at 0.8 ppm [2, 14]: 20%
- Kill rate after 6 days, With penetrant and AS [2, 10]: 98%
- pest or weed control at 0.8 ppm [3, 15]: 5%
- Kill rate after 6 days, With penetrant and AS [3, 10]: 95%

SMILES: C#CCN(CCN/C(=C/[N+](=O)[O-])OC)Cc1ccc(Cl)nc1 [Ih-2]
- pest or weed control at 0.8 ppm [2, 14]: 80%
- Kill rate after 6 days, With penetrant and AS [2, 10]: 98%
- pest or weed control at 0.8 ppm [3, 15]: 65%
- Kill rate after 6 days, With penetrant and AS [3, 10]: 90%

SMILES: C#CCN(CCN/C(=N/[N+](=O)[O-])OC)Cc1ccc(Cl)nc1 [Ih-3]
- pest or weed control at 0.8 ppm [3, 15]: 15%
- Kill rate after 6 days, With penetrant and AS [3, 10]: 55%

SMILES: CS/C(=N\[N+](=O)[O-])NCCN(Cc1ccc(Cl)nc1)CC1CC1 [Ih-4]
- pest or weed control at 0.8 ppm [3, 15]: 15%
- Kill rate after 6 days, With penetrant and AS [3, 10]: 45%
